According to patent US8273754B2, “Substituted 1H-pyrazolo[3,4-D]pyrimidine-6-amine compounds” (ArQule, Inc., priority 2008, dated 2012):
Where two headings read alike, the source gives them in different places.

Tested on: cancer cells
Assay: MTS cell growth inhibition assay (72 hours)
Assay type: cell-based
Experimental: Cells were maintained at 37° C., 5% CO2 in DMEM media supplemented with 1% fetal bovine serum, penicillin/streptomycin and fungizone (Invitrogen). Cells were seeded into 96-well tissue culture plates at 3000 per well and cultured at 37° C. for 18 hours. Test compounds were dissolved and diluted to 300× in DMSO then further diluted 1:40 in DMEM before addition to cells (1:7.5 dilution). Cells were incubated with test compounds for 72 hours followed by incubation with tetrazolium compound (3-(4,5-dimethylthiazol-2-yl)-5-(3-carboxymethoxyphenyl)-2-(4-sulfophenyl)-2H-tetrazolium, inner salt; MTS) and the electron coupling reagent, phenazine methosulfate (PMS) for 4 hours. […] The ability of compounds to inhibit cell growth in this assay is correlated with the reduction of dehydrogenase enzyme activity found in metabolically active cells. The measurement of the absorbance of the formazan was assessed using an ENVISION™ (Perkin Elmer) microplate reader at 492 nm. The calculated IC50 value is the concentration of the test compound that causes a 50% decrease in the absorbance. […] A=>79% inhibition, B=>50 to 79% inhibition, C=<50% inhibition.

[1] = Homo sapiens, DLD-1, 72 h, DLD-1 cells, read-out: DLD-1 MTS 72 hr at 10 μM
[2] = Homo sapiens, KATO III, 72 h, KATO III cells, read-out: KATO III MTS 72 hr at 10 μM
[3] = Homo sapiens, MDA-MB-231, 72 h, MDA-MB-231 cells, read-out: MDA-MB-231 MTS 72 hr at 10 μM
[4] = Homo sapiens, NCI-H1299, 72 h, NCI-H1299 cells, read-out: NCI-H1299 MTS 72 hr at 10 μM
[5] = PaCa-2, 72 h, PACA-2 cells, read-out: PACA-2 MTS 72 hr at 10 μM

CCCCCCc1ccc(C(=O)N2CC(Nc3nc(N)nc4[nH]ncc34)Cc3ccccc32)cc1 (stereo not drawn) [Compound 88, (3-(6-amino-1H-pyrazolo[3,4-d]pyrimidin-4-ylamino)-3,4-dihydroquinolin-1(2H)-yl)(4-hexylphenyl)methanone]
inhibition at 10 µM [1]: 50 to 79%
inhibition at 10 µM [2]: < 50%
inhibition at 10 µM [3]: < 50%
inhibition at 10 µM [4]: < 50%
inhibition at 10 µM [5]: < 50%

Nc1nc(NC2Cc3ccccc3N(S(=O)(=O)c3cccc(NC(=O)Nc4cccc(Cl)c4F)c3)C2)c2cn[nH]c2n1 (stereo not drawn) [Compound 221, 1-[3-({3-[(6-amino-1H-pyrazolo[3,4-d]pyrimidin-4-yl)amino]-3,4-dihydroquinolin-1(2H)-yl}sulfonyl)phenyl]-3-(3-chloro-2-fluorophenyl)urea]
inhibition at 10 µM [1]: > 79%
inhibition at 10 µM [2]: > 79%
inhibition at 10 µM [3]: > 79%
inhibition at 10 µM [4]: > 79%
inhibition at 10 µM [5]: > 79%

Nc1nc(NC2Cc3ccccc3N(S(=O)(=O)c3cccc(NC(=O)Nc4ccccc4F)c3)C2)c2cn[nH]c2n1 (stereo not drawn) [Compound 215, 1-[3-({3-[(6-amino-1H-pyrazolo[3,4-d]pyrimidin-4-yl)amino]-3,4-dihydroquinolin-1(2H)-yl}sulfonyl)phenyl]-3-(2-fluorophenyl)urea]
inhibition at 10 µM [4]: < 50%

COc1ccc(Oc2ccccc2CN2CC(Nc3nc(N)nc4[nH]ncc34)Cc3ccccc32)cc1 (stereo not drawn) [Compound 153, N4-{1-[2-(4-methoxyphenoxy)benzyl]-1,2,3,4-tetrahydroquinolin-3-yl}-1H-pyrazolo[3,4-d]pyrimidine-4,6-diamine]
inhibition at 10 µM [1]: 50 to 79%
inhibition at 10 µM [2]: 50 to 79%
inhibition at 10 µM [3]: < 50%
inhibition at 10 µM [4]: < 50%
inhibition at 10 µM [5]: < 50%

Nc1nc(NC2Cc3ccccc3N(S(=O)(=O)c3ccc(NC(=O)Nc4ccc(C(F)(F)F)cc4)cc3)C2)c2cn[nH]c2n1 (stereo not drawn) [Compound 188, 1-[4-({3-[(6-amino-1H-pyrazolo[3,4-d]pyrimidin-4-yl)amino]-3,4-dihydroquinolin-1(2H)-yl}sulfonyl)phenyl]-3-[4-(trifluoromethyl)phenyl]urea]
inhibition at 10 µM [1]: > 79%
inhibition at 10 µM [2]: > 79%
inhibition at 10 µM [3]: > 79%
inhibition at 10 µM [4]: > 79%
inhibition at 10 µM [5]: > 79%

COc1ccc(-c2cccc(S(=O)(=O)N3CC(Nc4nc(N)nc5[nH]ncc45)Cc4ccccc43)c2)cc1 (stereo not drawn) [Compound 63, N4-(1-(4′-methoxybiphenyl-3-ylsulfonyl)-1,2,3,4-tetrahydroquinolin-3-yl)-1H-pyrazolo[3,4-d]pyrimidine-4,6-diamine]
inhibition at 10 µM [1]: 50 to 79%
inhibition at 10 µM [2]: > 79%
inhibition at 10 µM [3]: < 50%
inhibition at 10 µM [4]: 50 to 79%
inhibition at 10 µM [5]: 50 to 79%

Nc1nc(NC2Cc3ccccc3N(Cc3cccc(Oc4cc(Cl)cc(Cl)c4)c3)C2)c2cn[nH]c2n1 (stereo not drawn) [Compound 154, N4-{1-[3-(3,5-dichlorophenoxy)benzyl]-1,2,3,4-tetrahydroquinolin-3-yl}-1H-pyrazolo[3,4-d]pyrimidine-4,6-diamine]
inhibition at 10 µM [1]: > 79%
inhibition at 10 µM [2]: > 79%
inhibition at 10 µM [3]: 50 to 79%
inhibition at 10 µM [4]: 50 to 79%
inhibition at 10 µM [5]: 50 to 79%

Nc1nc(NC2Cc3ccccc3N(Cc3c(F)cccc3Cl)C2)c2cn[nH]c2n1 (stereo not drawn) [Compound 140, N4-[1-(2-chloro-6-fluorobenzyl)-1,2,3,4-tetrahydroquinolin-3-yl]-1H-pyrazolo[3,4-d]pyrimidine-4,6-diamine]
inhibition at 10 µM [1]: > 79%
inhibition at 10 µM [2]: > 79%
inhibition at 10 µM [3]: > 79%
inhibition at 10 µM [4]: 50 to 79%
inhibition at 10 µM [5]: > 79%

Nc1nc(NC2CCN(S(=O)(=O)c3ccc4c(c3)OCCO4)c3ccccc3C2)c2cn[nH]c2n1 (stereo not drawn) [Compound 165, N4-[1-(2,3-dihydro-1,4-benzodioxin-6-ylsulfonyl)-2,3,4,5-tetrahydro-1H-1-benzazepin-4-yl]-1H-pyrazolo[3,4-d]pyrimidine-4,6-diamine]
inhibition at 10 µM [1]: < 50%
inhibition at 10 µM [2]: < 50%
inhibition at 10 µM [3]: < 50%
inhibition at 10 µM [4]: < 50%
inhibition at 10 µM [5]: < 50%

CCc1ccc(S(=O)(=O)N2CCC(Nc3nc(N)nc4[nH]ncc34)Cc3ccccc32)cc1 (stereo not drawn) [Compound 172, N4-{1-[(4-ethylphenyl)sulfonyl]-2,3,4,5-tetrahydro-1H-1-benzazepin-4-yl}-1H-pyrazolo[3,4-d]pyrimidine-4,6-diamine]
inhibition at 10 µM [1]: < 50%
inhibition at 10 µM [2]: < 50%
inhibition at 10 µM [3]: < 50%
inhibition at 10 µM [4]: < 50%
inhibition at 10 µM [5]: < 50%

COc1ccccc1Oc1cccc(S(=O)(=O)N2CC(Nc3nc(N)nc4[nH]ncc34)Cc3ccccc32)c1 (stereo not drawn) [Compound 77, N4-(1-(3-(2-methoxyphenoxy)phenylsulfonyl)-1,2,3,4-tetrahydroquinolin-3-yl)-1H-pyrazolo[3,4-d]pyrimidine-4,6-diamine]
inhibition at 10 µM [1]: < 50%
inhibition at 10 µM [2]: 50 to 79%
inhibition at 10 µM [3]: < 50%
inhibition at 10 µM [4]: < 50%
inhibition at 10 µM [5]: < 50%

Cc1cc([N+](=O)[O-])ccc1NC(=O)N1CC(Nc2nc(N)nc3[nH]ncc23)Cc2ccccc21 (stereo not drawn) [Compound 113, 3-(6-amino-1H-pyrazolo[3,4-d]pyrimidin-4-ylamino)-N-(2-methyl-4-nitrophenyl)-3,4-dihydroquinoline-1(2H)-carboxamide]
inhibition at 10 µM [1]: > 79%
inhibition at 10 µM [2]: > 79%
inhibition at 10 µM [3]: > 79%
inhibition at 10 µM [4]: > 79%
inhibition at 10 µM [5]: > 79%

Nc1nc(NC2Cc3ccccc3N(S(=O)(=O)c3cccc(Br)c3)C2)c2cn[nH]c2n1 (stereo not drawn) [Compound 41, N4-(1-(3-bromophenylsulfonyl)-1,2,3,4-tetrahydroquinolin-3-yl)-1H-pyrazolo[3,4-d]pyrimidine-4,6-diamine]
inhibition at 10 µM [1]: < 50%
inhibition at 10 µM [2]: > 79%
inhibition at 10 µM [3]: < 50%
inhibition at 10 µM [4]: < 50%
inhibition at 10 µM [5]: < 50%

Cc1cccc(S(=O)(=O)N2CCC(Nc3nc(N)nc4[nH]ncc34)Cc3ccccc32)c1 (stereo not drawn) [Compound 168, N4-{1-[(3-methylphenyl)sulfonyl]-2,3,4,5-tetrahydro-1H-1-benzazepin-4-yl}-1H-pyrazolo[3,4-d]pyrimidine-4,6-diamine]
inhibition at 10 µM [1]: < 50%
inhibition at 10 µM [2]: < 50%
inhibition at 10 µM [3]: < 50%
inhibition at 10 µM [4]: < 50%
inhibition at 10 µM [5]: < 50%

Nc1nc(NC2Cc3ccccc3N(Cc3ccccc3Oc3ccccc3)C2)c2cn[nH]c2n1 (stereo not drawn) [Compound 149, N4-[1-(2-phenoxybenzyl)-1,2,3,4-tetrahydroquinolin-3-yl]-1H-pyrazolo[3,4-d]pyrimidine-4,6-diamine]
inhibition at 10 µM [1]: > 79%
inhibition at 10 µM [2]: 50 to 79%
inhibition at 10 µM [3]: < 50%
inhibition at 10 µM [4]: < 50%
inhibition at 10 µM [5]: < 50%

Nc1nc(NC2Cc3ccccc3N(S(=O)(=O)c3cccc(NC(=O)Nc4c(F)cccc4F)c3)C2)c2cn[nH]c2n1 (stereo not drawn) [Compound 203, 1-[3-({3-[(6-amino-1H-pyrazolo[3,4-d]pyrimidin-4-yl)amino]-3,4-dihydroquinolin-1(2H)-yl}sulfonyl)phenyl]-3-(2,6-difluorophenyl)urea]
inhibition at 10 µM [1]: < 50%
inhibition at 10 µM [2]: < 50%
inhibition at 10 µM [3]: < 50%
inhibition at 10 µM [4]: < 50%
inhibition at 10 µM [5]: 50 to 79%

CCC(C)(C)c1ccc(S(=O)(=O)N2CC(Nc3nc(N)nc4[nH]ncc34)Cc3ccccc32)cc1 (stereo not drawn) [Compound 61, N4-(1-(4-tert-pentylphenylsulfonyl)-1,2,3,4-tetrahydroquinolin-3-yl)-1H-pyrazolo[3,4-d]pyrimidine-4,6-diamine]
inhibition at 10 µM [1]: < 50%
inhibition at 10 µM [2]: < 50%
inhibition at 10 µM [3]: < 50%
inhibition at 10 µM [4]: < 50%
inhibition at 10 µM [5]: < 50%

Nc1nc(NC2Cc3ccccc3N(S(=O)(=O)c3ccc4c(c3)OCCO4)C2)c2cn[nH]c2n1 (stereo not drawn) [Compound 76, N4-(1-(2,3-dihydrobenzo[b][1,4]dioxin-6-ylsulfonyl)-1,2,3,4-tetrahydroquinolin-3-yl)-1H-pyrazolo[3,4-d]pyrimidine-4,6-diamine]
inhibition at 10 µM [1]: < 50%
inhibition at 10 µM [2]: < 50%
inhibition at 10 µM [3]: < 50%
inhibition at 10 µM [4]: < 50%
inhibition at 10 µM [5]: 50 to 79%

COc1ccc(CN2CC(Nc3nc(N)nc4[nH]ncc34)Cc3ccccc32)cc1OCc1ccccc1 (stereo not drawn) [Compound 160, N4-{1-[3-(benzyloxy)-4-methoxybenzyl]-1,2,3,4-tetrahydroquinolin-3-yl}-1H-pyrazolo[3,4-d]pyrimidine-4,6-diamine]
inhibition at 10 µM [1]: > 79%
inhibition at 10 µM [2]: > 79%
inhibition at 10 µM [3]: < 50%
inhibition at 10 µM [4]: < 50%
inhibition at 10 µM [5]: > 79%

Nc1nc(NC2CCN(S(=O)(=O)c3ccc(OC(F)(F)F)cc3)c3ccccc3C2)c2cn[nH]c2n1 (stereo not drawn) [Compound 185, N4-(1-{[4-(trifluoromethoxy)phenyl]sulfonyl}-2,3,4,5-tetrahydro-1H-1-benzazepin-4-yl)-1H-pyrazolo[3,4-d]pyrimidine-4,6-diamine]
inhibition at 10 µM [1]: < 50%
inhibition at 10 µM [2]: < 50%
inhibition at 10 µM [3]: < 50%
inhibition at 10 µM [4]: < 50%
inhibition at 10 µM [5]: < 50%
